# Reference: PMC3137686 (Synapse (New York, N.Y.), 2011)
# Entries after “also recorded” stand apart in the source; their conditions may differ.
# Key:
# cytochrome P450 (CYP450) = conditions: ref Broly et al. 1990; Ramamoorthy et al. 2002; Heydari et al. 2004; cited from earlier work
# Rectal = format: in vivo, rat
# [1] = tested on: brain 5-HT axonal markers; conditions: intrastriatal administration; ref Jones et al. 2005; cited from earlier work
# [2] = tested on: brain serotonin (5-HT) neurons; test: Regional brain 5-HT and 5-HIAA concentrations one week after drug treatment; format: in vivo, rat; conditions: one week after single oral dose of 20 mg/kg MDMA
# [3] = tested on: brain serotonin (5-HT) neurons; conditions: ref Paris and Cunningham 1992, Esteban et al. 2001, Escobedo et al. 2005; cited from earlier work
smiles,measurement,setting,value
"COc1ccc2c(c1)[C@]13CCCC[C@@H]1[C@H](C2)N(C)CC3 [DXM, dextromethorphan]",inhibition of CYP450-mediated metabolism of MDMA to HHMA,cytochrome P450 (CYP450),potent competitive inhibitor
same,effect of DXM on body (core) temperature,"Rectal; DXM 30 mg/kg i.p. x3, alone or in combination with MDMA 20 mg/kg p.o.",did not significantly alter; also recorded: no significant effect
same,body temperature after combination of MDMA and DXM,Rectal; MDMA 20 mg/kg p.o. + DXM 30 mg/kg i.p. x3,"longer lasting decrease in temperature, which was followed by an increase in core temperature"
same,"peak temperatures, MDMA/DXM group vs MDMA/Saline group","Rectal; MDMA 20 mg/kg p.o. + DXM 30 mg/kg i.p. x3, difference did not achieve statistical significance",lower
"CNC(C)Cc1cc(O)c(O)c(SC[C@H](NC(C)=O)C(=O)O)c1 (stereo partly shown) [5-NAC-HHMA, 5-N-acetylcystein-S-yl-HHMA]",lasting depletions of indoles in the rat brain,[1],produces lasting depletions of indoles
"CNC(C)Cc1ccc2c(c1)OCO2 (stereo not shown) [MDMA, 3,4-Methylenedioxymethamphetamine]",5-HT and 5-HIAA concentrations across brain regions after MDMA,[2],lasting effects
same,toxic effects after central administration,[3],does not produce toxic effects
